The structures appear in SMILES notation. “And” between values parts separate entries of the source, which are not always exact repeats. Equal values may be shown once.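 Cultured in 96-well plates, cells were exposed to test compound for 48 hours across five concentrations. Abbreviation: GI50, concentration required for 50% inhibition of growth.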 The source made the active and inactive calls. Rule as the data show it: active = GI50 up to about 1.1 µM and inactive = higher. Bounds are passed on as bounds.

Some test systems named below: DLD-1; DMS-114; DMS-273; HOP-18; KM-20L2; LXFL 529; RXF 631; SNB-78; XF498.
Test in all cases: NCI tumour cell line growth inhibition, 48 h

Regarding `O=c1oc2ccccc2[n+]([O-])c1-c1ccccc1`, the GI50 in the experiment with DLD-1, in the experiment with DMS-114, in the experiment with DMS-273, in the experiment on HOP-18, in the experiment with KM-20L2 and in the experiment with LXFL 529 was > 100 µM (inactive) in each case. Besides, the GI50 with RXF 631, in the experiment with SNB-78 and with XF498 was > 100 µM (inactive) in each case.

With `Cc1cc(C)c(C(=O)C(C)C(c2ccccc2)c2ccc(Cl)cc2)c(C)c1` (stereo unspecified), the GI50 in the experiment with DLD-1 is > 100 µM (inactive); in the experiment with DMS-114, > 100 µM (inactive) and 76.7 µM (inactive); in the experiment with HOP-18, > 100 µM (inactive); in the experiment with LXFL 529 it was 63.5 µM (inactive); in the experiment with RXF 631 it was > 100 µM (inactive) and 95.1 µM (inactive); with XF498 it was 61.2 µM (inactive) and 33.3 µM (inactive).

`NNC(=O)CC(=O)Nc1ccccc1F`: the GI50 with DLD-1, in the experiment with DMS-114, in the experiment on DMS-273, with HOP-18, in the experiment with KM-20L2 and in the experiment on LXFL 529 was > 100 µM (inactive) throughout. The GI50 in the experiment on RXF 631 and in the experiment with SNB-78 was > 100 µM (inactive) each time.

On to `O=C(/C=C/c1ccc(Cl)c(Cl)c1)c1ccc2ccccc2c1`, for which the GI50 in the experiment with DLD-1, with DMS-114, with DMS-273, in the experiment on HOP-18, with KM-20L2 and in the experiment on LXFL 529 was > 100 µM (inactive) throughout. The GI50 in the experiment with RXF 631 and with SNB-78 was > 100 µM (inactive) each time.

For `C[N+](C)(C)CC(=O)N/N=C(/C(=O)Nc1ccc(Br)cc1)C1C(=O)NC(=O)NC1=O`, the GI50 with DLD-1, in the experiment on DMS-114, in the experiment on DMS-273, in the experiment on HOP-18, with KM-20L2 and in the experiment on LXFL 529 was > 100 µM (inactive) throughout. Moreover, the GI50 in the experiment with RXF 631 and in the experiment on SNB-78 was > 100 µM (inactive) in each case.

Consider `CC(C)N1CC2CC(CN(C(=O)c3ccc(Cl)cc3)C2)C1`, for which the GI50 in the experiment on DMS-114, in the experiment with DMS-273, in the experiment with HOP-18, in the experiment with KM-20L2, in the experiment on LXFL 529 and with RXF 631 was > 100 µM (inactive) in each case. Besides, in the experiment with XF498, the GI50 is > 100 µM (inactive).

On to `Cc1cc(C)c([O-])c(-[n+]2c(-c3ccccc3)cc(-c3ccccc3)cc2-c2ccccc2)c1`, for which the GI50 with DLD-1 was 5.19 µM (inactive); in the experiment with DMS-114, 3.05 µM (inactive); in the experiment with DMS-273, 3.24 µM (inactive); in the experiment with HOP-18, 5.31 µM (inactive); in the experiment on KM-20L2, 2.65 µM (inactive); in the experiment with LXFL 529 it was 2.35 µM (inactive). The GI50 with RXF 631 is 10.2 µM (inactive); with SNB-78, 6.24 µM (inactive); with XF498, 2.15 µM (inactive).

Turning to `CC[C@]1(O)C(=O)OCc2c1cc1n(c2=O)Cc2cc3c(N)cccc3nc2-1`, the GI50 in the experiment on DLD-1, in the experiment with DMS-114, in the experiment on DMS-273, in the experiment on HOP-18, in the experiment on KM-20L2 and with LXFL 529 was > 100 µM (inactive) each time. Moreover, the GI50 in the experiment on RXF 631 and in the experiment on XF498 was > 100 µM (inactive) in each case.

As to `O=C(CC(=O)n1nc(-c2ccccc2)c(/N=N/c2ccc([N+](=O)[O-])cc2)c1-c1ccccc1)Nc1ccc(Cl)cc1`, the GI50 with DLD-1 was 22 µM (inactive); in the experiment on DMS-114 it was 5.92 µM (inactive); in the experiment with DMS-273, 19.9 µM (inactive); in the experiment on HOP-18 it was 26.4 µM (inactive); with KM-20L2 it was 3.25 µM (inactive); in the experiment with LXFL 529, 8.73 µM (inactive). Also, the GI50 in the experiment with RXF 631 was 55.6 µM (inactive); in the experiment with SNB-78 it was 88.5 µM (inactive); with XF498 it was 26.2 µM (inactive).

In the case of `COc1c(Cl)c(Cl)c(OC)c2c1C(=O)C=CC2=O`, the GI50 in the experiment with DLD-1 is 14.5 µM (inactive); with DMS-114, 16 µM (inactive); in the experiment with DMS-273, 15.2 µM (inactive); with HOP-18, 44.5 µM (inactive); in the experiment with KM-20L2, 68.2 µM (inactive); with LXFL 529 it was 15.8 µM (inactive). The GI50 is 13 µM (inactive) in the experiment on SNB-78 and 16.9 µM (inactive) in the experiment with XF498.

Take `Cc1c2cc[n+](C)cc2c(C)c2c1[nH]c1ccc(O)c(OCC(F)(F)F)c12`: the GI50 is 2.34 µM (inactive) in the experiment with DLD-1; 0.938 µM (active) with DMS-114; 1.58 µM (inactive) in the experiment on DMS-273; 7.13 µM (inactive) in the experiment on KM-20L2; 0.807 µM (active) in the experiment on LXFL 529; 2.78 µM (inactive) in the experiment with RXF 631. Further, the figures for the GI50 in the experiment with SNB-78 and in the experiment with XF498 were 1.16 µM (inactive) and 1.2 µM (inactive), respectively.

On to `COc1cccc2c1C1=CC(=O)CCC1C(C)(C)O2` (stereo unspecified), for which the GI50 in the experiment on DLD-1 is 57.5 µM (inactive); with DMS-114, 27.8 µM (inactive); with DMS-273, > 100 µM (inactive); in the experiment with HOP-18, > 100 µM (inactive); in the experiment on KM-20L2, > 100 µM (inactive); with LXFL 529, > 100 µM (inactive). For the same compound, the GI50 with RXF 631 and in the experiment with SNB-78 was > 100 µM (inactive) in each case.

For `CC(SC(=S)N1CCOCC1)c1cc2oc(=O)n(C)c2cc1Cl` (stereo unspecified), the GI50 was > 100 µM (inactive) in the experiment on DLD-1; 84.5 µM (inactive) in the experiment on DMS-114; > 100 µM (inactive) in the experiment with DMS-273; > 100 µM (inactive) in the experiment with HOP-18; > 100 µM (inactive) in the experiment on KM-20L2; 57.4 µM (inactive) with LXFL 529. Besides, the GI50 in the experiment on SNB-78 and in the experiment on XF498 was > 100 µM (inactive) each time.

With `CN(C)C=C1C(=O)N(C)C(=O)N(C)C1=O`, the GI50 in the experiment on DLD-1, in the experiment with DMS-114, in the experiment with DMS-273, in the experiment on HOP-18, in the experiment with KM-20L2 and with LXFL 529 was > 100 µM (inactive) throughout. The GI50 in the experiment on SNB-78 and in the experiment with XF498 was > 100 µM (inactive) in each case.

In the case of `C[N+](C)(C)CCc1ccccc1`, the GI50 with DLD-1, with DMS-114, in the experiment on DMS-273, in the experiment with KM-20L2, with LXFL 529 and with RXF 631 was > 100 µM (inactive) each time. The GI50 with SNB-78 and with XF498 was > 100 µM (inactive) throughout.

For the compound `O=C(Cc1ccc(F)cc1)NC1=C(Cl)C(=O)c2ccccc2C1=O`, the GI50 in the experiment with DLD-1 was 2.18 µM (inactive); with DMS-114 it was 0.514 µM (active); in the experiment with DMS-273, 3.63 µM (inactive); in the experiment on KM-20L2 it was 17.7 µM (inactive); with LXFL 529 it was 2.8 µM (inactive); in the experiment with RXF 631, 7.36 µM (inactive). Further, the GI50 is 7.03 µM (inactive) in the experiment with SNB-78 and 1.76 µM (inactive) with XF498.

As to `CCOC(=O)c1ccc(/N=C/c2ccc(N(CCC#N)S(=O)(=O)c3ccccc3)cc2C)cc1`, the GI50 is 25.1 µM (inactive) in the experiment on DLD-1; 36 µM (inactive) in the experiment with DMS-114; 65.3 µM (inactive) with DMS-273; 16.4 µM (inactive) with KM-20L2; 6.01 µM (inactive) with LXFL 529; > 100 µM (inactive) in the experiment on RXF 631. Besides, the GI50 was 33.2 µM (inactive) in the experiment with SNB-78 and > 100 µM (inactive) in the experiment with XF498.
